Counter-ions that a name gives are not always drawn.

The target of the test is GABA recognition site and the benzodiazepine modulatory unit (GABAA receptor complex), cerebral cortex membranes. Description: In vitro inhibition of 3H-flunitrazepam (3H-FNM) binding. The note with it: inhibition of specific binding of 3H-FNM (1 nM), cerebral cortex membranes from male Wistar rats, 40 min at 2° C. On the set-up: species or system rat. How it is done:
In vitro Inhibition of ^3H-flunitrazepam (^3H-FNM) Binding
The GABA recognition site and the benzodiazepine modulatory unit can selectively be labelled with ^3H-flunitrazepam.
Preparations are performed at 0-4° C. unless otherwise indicated. Cerebral cortex from male Wistar rats (150-200 g) is homogenised for 5-10 sec in 20 ml […] (30 mM, pH 7.4) using an Ultra-Turrax homogeniser. The suspension is centrifuged at 27,000×g for 15 min and the pellet is washed three times with buffer (centrifuged at 27,000×g for 10 min). The washed pellet is homogenized in 20 ml of buffer and incubated on a water bath (37° C.) for 30 min to remove endogenous GABA and then centrifuged for 10 min at 27,000×g. The pellet is then homogenized in buffer and centrifuged for 10 min at 27,000×g. The final pellet is resuspended in 30 ml buffer and the preparation is frozen and stored at −20° C.
The membrane preparation is thawed and centrifuged at 2° C. for 10 min at 27,000×g. The pellet is washed twice with 20 ml 50 mM Tris-citrate, pH 7.1 using an Ultra-Turrax homogeniser and centrifuged for 10 min at 27,000×g. The final pellet is resuspended in 50 mM Tris-citrate, pH 7.1 (500 ml buffer per g of original tissue), and then used for binding assays. Aliquots of 0.5 ml tissue are added to 25 μl of test solution and 25 μl of ^3H-FNM (1 nM, final concentration), mixed and incubated for 40 min at 2° C. Non-specific binding is determined using Clonazepam (1 μM, final concentration). After incubation the samples are added 5 ml of ice-cold buffer and poured directly onto Whatman GF/C glass fibre filters under suction and immediately washed with 5 ml ice-cold buffer. The amount of radioactivity on the filters is determined by conventional liquid scintillation counting. Specific binding is total binding minus non-specific binding.
25-75% inhibition of specific binding must be obtained, before calculation of an IC50.
The test value will be given as IC50 (the concentration (μM) of the test substance which inhibits the specific binding of ^3H-FNM by 50%).
Co is specific binding in control assays, and
Cx is the specific binding in the test assay.
(The calculations assume normal mass-action kinetics).
One may read the IC50 as the midpoint of a concentration-inhibition curve. Low values mean higher potency, high ones lower potency. Regarding `N#Cc1cccc(C=Nc2cc(C(F)(F)F)cc3ncn(-c4ccccc4)c23)c1` [Example 10, 7-(N-(3-cyanobenzylidene)amino)-1-phenyl-5-trifluoromethylbenzimidazole], the IC50 came to 0.018 µM.
To “7-[1-(3-Dimethylamino)pyrrolidinyl]-1-phenyl-5-trifluoromethylbenzimidazole trifluoroacetic acid salt [Example 94]” belongs 0.09 µM; to `COC(=O)C=Cc1cc(C(F)(F)F)cc2ncn(-c3ccccc3)c12` [Example 57, 3-(3-Phenyl-6-trifluoromethyl-3H-benzimidazol-4-yl)acrylic acid methyl ester], 0.046 µM; to `FC(F)(F)c1cc(C#CCN2CC=CCC2)c2c(c1)ncn2-c1ccccc1` [Example 92, 1-Phenyl-7-(3-(1-(1,2,3,6-tetrahydropyridinyl))prop-1-ynyl)-5-trifluoromethylbenzimidazole], 0.048 µM.
Molecule `OCc1cc(-c2cccc(OC(F)(F)F)c2)c2c(c1)ncn2-c1ccccc1` [Example 51, 5-(Hydroxymethyl)-1-phenyl-7-(3-trifluoromethoxyphenyl)benzimidazole] had an IC50 of 0.012 µM.
Consider `FC(F)(F)c1cc(C#CCN2CCOCC2)c2c(c1)ncn2-c1ccccc1` [Example 80, 7-(3-(4-Morpholino)prop-1-ynyl)-1-phenyl-5-trifluoromethylbenzimidazole trifluoroacetic acid salt], for which the IC50 amounted to 0.18 µM. This IC50 lies about 15-fold higher than the previous one.
The figure for `COc1ccc(-c2cc(C#N)cc3ncn(-c4ccccc4)c23)cc1` [Example 23, 5-Cyano-7-(4-methoxyphenyl)-1-phenylbenzimidazole] is 0.038 µM; for `CCN(CC)C(=O)CCc1cc(C(F)(F)F)cc2ncn(-c3ccccc3)c12` [Example 81, N,N-Diethyl-3-(3-Phenyl-6-trifluoromethyl-3H-benzimidazol-4-yl)propionamide] it is 0.038 µM; for `CN(CCC#N)CCCCc1cc(C(F)(F)F)cc2ncn(-c3ccccc3)c12` [Example 88, 7-(4-((N-(2-Cyanoethyl)-N-methyl)amino)-1-butyl)-1-phenyl-5-trifluoromethylbenzimidazole trifluoroacetic acid salt] it is 0.1 µM.
The figure for `OCc1cccc(-c2cc(C(F)(F)F)cc3ncn(-c4ccccc4)c23)c1` [Example 12, 7-(3-(Hydroxymethyl)phenyl)-1-phenyl-5-trifluoromethylbenzimidazole] is 0.03 µM; for `CCN(CC)C(=O)C=Cc1cc(C(F)(F)F)cc2ncn(-c3ccccc3)c12` [Example 65, N,N-Diethyl-3-(3-phenyl-6-trifluoromethyl-3H-benzimidazol-4-yl)acrylamide] it is 0.02 µM; for `Nc1cccc(-c2cc(C=NO)cc3ncn(-c4ccccc4)c23)c1` [Example 6, 7-(3-Aminophenyl)-5-formyl-1-phenylbenzimidazole oxime] it is 0.0042 µM.
The figure for `CCN(CC)Cc1ccc(-c2cc(C#N)cc3ncn(-c4ccccc4)c23)cc1` [Example 41, 5-Cyano-7-(4-diethylaminomethylphenyl)-1-phenylbenzimidazole trifluoroacetic acid salt] is 0.027 µM; for `CCOC(=O)c1cc(-c2cccc(CN3CCN(C)CC3)c2)c2c(c1)ncn2-c1ccccc1` [Example 33, 5-Ethoxycarbonyl-7-(3-((1-methylpiperazin-4-yl)methyl)phenyl)-1-phenylbenzimidazole] it is 0.019 µM.

The record behind these values is patent publication US7700638B2, “1,5,7-trisubstituted benzimidazole derivatives and their use for modulating the GABAA receptor complex” (N. V. Organon, priority 2003, dated 2010).
